One compound from PMC4853715, “Design, Synthesis and Antitumor Activity of Novel link-bridge and B-Ring Modified Combretastatin A-4 (CA-4) Analogues as Potent Antitubulin Agents” (Scientific Reports, 2016) can be followed below.

The test system of this experiment is HepG2, Hela, MCF-7, A549, HT-29 and SSC-4 cell lines. The experiment in a line: MTT assay, panel of six cancer cell lines. The class given is cell-based. To be noted: Homo sapiens; range over six cell lines; read-out: IC50 values against a panel of cancer cell lines. The protocol:
The in vitro anticancer activities of the prepared compounds against HepG2, Hela, MCF-7, A549, HT-29 and SSC-4 cell lines were evaluated as described in the literature. Target tumor cells were grown to log phase in DMEM medium supplemented with 10% fetal bovine serum. After reaching a dilution of 1 × 10^5 cells Ml^−1 with the medium, 100 μL of the obtained cell suspension was added to each well of 96-well culture plates. Subsequently, incubation was performed at 37 °C in 5% CO2 atmosphere for 12 h before the cytotoxicity assessment. Tested samples at preset concentrations were added to 6 wells with CA-4 being employed as a positive reference. After 48 h exposure period, 25 μL of PBS containing 2.5 mg mL^−1 of MTT (Sigma, USA) was added to each well. After 4 h, the medium was replaced by 150 μL DMSO to dissolve the purple formazan crystals produced. The absorbance at 570 nm of each well was measured with Synergy™ 2 Multi-Mode Microplate Reader. Cell viability (%) was calculated using the following equation: cell viability (%) = (Atreatment/Acontrol) × 100%. The data represented the mean of three independent experiments in triplicate and were expressed as means ± SD.

For `COc1cc(/C=N/NC(=O)c2cn(Cc3ccccc3)c3ccccc23)cc(OC)c1OC` [Compound 7], the IC50 lay in the range of 0.08 to 35.6 µM.
